Experimental data as given in ChEMBL document CHEMBL3739305, “A synthetic chalcone derivative, 2-hydroxy-3',5,5'-trimethoxychalcone (DK-139), suppresses the TNFα-induced invasive capability of MDA-MB-231 human breast cancer cells by inhibiting NF-κB-mediated GROα expression” (Bioorg Med Chem Lett, 2016).
Calls of active or inactive are those of the source. No cut-off for these calls is given here.

Legend:
MDA-MB-231 [1] = assay: Inhibition of TNF-alpha-induced cell invasion in human MDA-MB-231 cells assessed as decrease in spindle-like protrusions at 10 uM pretreated for 30 mins followed by addition of TNF-alpha by microscopic analysis; format: functional, cell-based
[2] = target: T1, Inhibitor of NF-kappa-B kinase (IKK) (Homo sapiens) (UniProt O14920+O15111+Q9Y6K9); assay: Inhibition of IKK in human MDA-MB-231 cells assessed as decrease in TNF-alpha-induced GROalpha mRNA level at 10 uM pretreated for 30 mins followed by addition of TNF-alpha measured after 12 hrs by QR-PCR analysis; format: cell-based
MDA-MB-231 [3] = assay: Inhibition of TNF-alpha-induced cell migration in human MDA-MB-231 cells at 10 uM pretreated for 30 mins followed by addition of TNF-alpha measured after 6 hrs by scratch wound healing assay; format: functional, cell-based
[4] = target: T1, Inhibitor of NF-kappa-B kinase (IKK) (Homo sapiens); assay: Inhibition of IKK in human MDA-MB-231 cells assessed as decrease in TNF-alpha-induced GROalpha mRNA level pretreated with compound for 30 mins followed by addition of TNF-alpha measured after 12 hrs by QR-PCR analysis; format: cell-based
MDA-MB-231 [5] = assay: Inhibition of TNF-alpha-induced cell invasion in human MDA-MB-231 cells at 10 uM pretreated for 30 mins followed by addition of TNF-alpha measured after 24 hrs by matrigel invasion assay; format: functional, cell-based
[6] = target: T2, Inhibitor of nuclear factor kappa-B kinase subunit beta (Homo sapiens) (UniProt O14920); assay: Inhibition of TNF-alpha-induced IKK-beta phosphorylation at Ser180 residue in human MDA-MB-231 cells at 5 and 10 uM pretreated for 30 mins followed by addition of TNF-alpha for 1 hr by immunoblot analysis; format: cell-based
T2 sequence (whole entry): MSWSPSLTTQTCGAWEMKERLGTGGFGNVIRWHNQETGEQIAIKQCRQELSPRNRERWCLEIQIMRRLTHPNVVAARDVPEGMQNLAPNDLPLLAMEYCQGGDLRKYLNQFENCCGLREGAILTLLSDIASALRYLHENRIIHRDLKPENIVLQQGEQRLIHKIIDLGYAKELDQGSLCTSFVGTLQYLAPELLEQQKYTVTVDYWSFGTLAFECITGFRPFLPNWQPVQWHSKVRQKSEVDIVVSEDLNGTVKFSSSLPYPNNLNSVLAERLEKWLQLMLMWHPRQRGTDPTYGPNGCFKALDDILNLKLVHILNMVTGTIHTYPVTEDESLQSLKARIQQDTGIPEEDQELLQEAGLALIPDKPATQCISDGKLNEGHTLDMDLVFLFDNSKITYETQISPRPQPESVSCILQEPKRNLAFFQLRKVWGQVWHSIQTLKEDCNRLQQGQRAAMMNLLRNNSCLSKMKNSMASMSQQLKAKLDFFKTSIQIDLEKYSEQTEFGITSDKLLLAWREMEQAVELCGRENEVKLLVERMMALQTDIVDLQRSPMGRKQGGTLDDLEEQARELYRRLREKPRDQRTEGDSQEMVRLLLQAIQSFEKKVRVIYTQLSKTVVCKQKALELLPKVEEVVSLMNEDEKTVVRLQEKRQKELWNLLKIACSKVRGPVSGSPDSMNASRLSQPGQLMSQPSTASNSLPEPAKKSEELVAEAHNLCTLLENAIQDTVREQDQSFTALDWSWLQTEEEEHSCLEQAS

[7] = target: T1, Inhibitor of NF-kappa-B kinase (IKK) (Homo sapiens); assay: Inhibition of IKK in human MDA-MB-231 cells assessed as inhibition of TNF-alpha-induced p65/RelA phosphorylation at Ser-536 residue at 5 and 10 uM pretreated for 30 mins followed by addition of TNF-alpha for 1 hr by immunoblot analysis; format: cell-based
[8] = target: T1, Inhibitor of NF-kappa-B kinase (IKK) (Homo sapiens); assay: Inhibition of IKK in human MDA-MB-231 cells assessed as inhibition of TNF-alpha-induced GROalpha promoter activation pretreated with compound for 30 mins followed by addition of TNF-alpha for 8 hrs by luciferase reporter gene assay; format: cell-based
MDA-MB-231 [9] = assay: Inhibition of TNF-alpha-induced cell motility in human MDA-MB-231 cells assessed as lamellipodium projection at 10 uM pretreated for 30 mins followed by addition of TNF-alpha measured after 10 mins by rhodamine- phalloidin staining based assay; format: functional
[10] = target: T1, Inhibitor of NF-kappa-B kinase (IKK) (Homo sapiens); assay: Inhibition of IKK in human MDA-MB-231 cells assessed as inhibition of TNF-alpha-induced IkappaB phosphorylation at Ser-32 residue at 5 and 10 uM pretreated for 30 mins followed by addition of TNF-alpha for 1 hr by immunoblot analysis; format: cell-based
[11] = target: T1, Inhibitor of NF-kappa-B kinase (IKK) (Homo sapiens); assay: Inhibition of IKK in human MDA-MB-231 cells assessed as decrease in TNF-alpha-induced GROalpha mRNA level pretreated with compound for 30 mins followed by addition of TNF-alpha measured after 12 hrs by RT-PCR analysis; format: cell-based
[12] = target: T3, Inhibitor of nuclear factor kappa-B kinase subunit alpha (Homo sapiens) (UniProt O15111); assay: Inhibition of TNF-alpha-induced IKK-alpha phosphorylation in human MDA-MB-231 cells at Ser176 residue at 5 and 10 uM pretreated for 30 mins followed by addition of TNF-alpha for 1 hr by immunoblot analysis; format: cell-based
T3 sequence (whole entry): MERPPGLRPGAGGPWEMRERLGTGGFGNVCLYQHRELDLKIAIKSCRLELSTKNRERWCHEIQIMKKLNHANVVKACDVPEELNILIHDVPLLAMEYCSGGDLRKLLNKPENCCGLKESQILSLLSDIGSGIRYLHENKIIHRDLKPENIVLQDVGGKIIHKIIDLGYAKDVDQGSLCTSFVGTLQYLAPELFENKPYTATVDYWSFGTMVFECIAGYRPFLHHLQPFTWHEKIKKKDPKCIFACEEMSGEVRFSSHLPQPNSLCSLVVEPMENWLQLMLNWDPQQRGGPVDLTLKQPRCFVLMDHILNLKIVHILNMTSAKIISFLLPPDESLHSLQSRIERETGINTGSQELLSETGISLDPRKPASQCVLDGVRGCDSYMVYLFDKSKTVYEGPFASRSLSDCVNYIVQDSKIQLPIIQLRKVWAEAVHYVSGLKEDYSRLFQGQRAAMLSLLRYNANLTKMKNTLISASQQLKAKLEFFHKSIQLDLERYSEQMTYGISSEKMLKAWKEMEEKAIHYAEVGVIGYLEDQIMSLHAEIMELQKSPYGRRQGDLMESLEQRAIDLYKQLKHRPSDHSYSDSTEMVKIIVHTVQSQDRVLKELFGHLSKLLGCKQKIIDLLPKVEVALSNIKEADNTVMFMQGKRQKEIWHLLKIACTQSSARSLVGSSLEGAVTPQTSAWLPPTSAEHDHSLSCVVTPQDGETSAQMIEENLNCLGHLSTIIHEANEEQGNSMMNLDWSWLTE

[13] = target: T1, Inhibitor of NF-kappa-B kinase (IKK) (Homo sapiens); assay: Inhibition of IKK in human MDA-MB-231 cells assessed as inhibition of TNF-alpha-induced NF-kappaB transcriptional activity pretreated with compound for 30 mins followed by addition of TNF-alpha for 8 hrs by luciferase reporter gene assay; format: cell-based
[14] = target: T1, Inhibitor of NF-kappa-B kinase (IKK) (Homo sapiens); assay: Inhibition of IKK in human MDA-MB-231 cells assessed as inhibition of TNF-alpha-induced p65/RelA phosphorylation at Ser-536 residue in nucleus at 10 uM pretreated for 30 mins followed by addition of TNF-alpha for 1 hr by immunofluorescence analysis; format: cell-based

With `COc1cc(/C=C/C(=O)c2cc(OC)ccc2O)cc(OC)c1` the inhibition (MDA-MB-231 [1]) was “Active”, the fold change (FC) [2] was 4.1 and the inhibition (MDA-MB-231 [3]) was “Active”. The inhibition [4] was “Dose-dependent effect”, the inhibition (MDA-MB-231 [5]) was “Active” and the inhibition [6] was “Active”. For the same compound, the inhibition [7] was “Active”, the inhibition [8] was “Dose-dependent effect” and the inhibition (MDA-MB-231 [9]) was “Active”. The inhibition [10] was “Active”, the inhibition [11] was “Dose-dependent effect” and the inhibition [12] was “Active”. For the same compound, the inhibition [13] was “Dose-dependent effect” and the inhibition [14] was “Active”.
